In patent publication US20260167715A1, “PD-1+CD38HICD8+ KILLER T CELLS AND USES THEREOF” (GEORGETOWN UNIVERSITY, priority 2022, published 2026):
Residues, ends and D or L forms follow the SMILES beside them. *: point of attachment. Cbz = O=C(OCc1ccccc1)*; CH2Cl = ClC*

Assays:
T^frat cells [1] = assay: Gzm B levels in T^frat cells after NAD repletion or SIRT1 activator; assay type: cell-based, mouse; conditions: NAD (1 mM) or SIRT1 activator (1 or 2 μM), 24 h
Experimental: (§1) PD1^+CD38^hi and Teff CD8 T cells were generated by our previously reported method^2. In brief, MACS purified (>90%) OT1-CD8 (CD45.1) T cells from mouse spleen were activated either with low-affinity OVA-V peptide or with high-affinity OVA peptide ([…]) in T cell medium supplemented with 30 international units (IU) of IL-2 for 48 hours followed by FACS purification of PD1^+CD38^hi and PD1^+CD38^lo T cells respectively. Various cell surface and intracellular markers as well as level of pro- and anti-inflammatory cytokines, and cytolytic molecules were analyzed by flow cytometry as explained in the next section. In some experiments, CD38 was KD using siRNA for 24 h prior to various marker analysis. Furthermore, in a few experiments, either NAD (1 mM) or SIRT1 activator (1 or 2 μM) were added to the Tfrat cells for 24 h and levels of Gzm B were measured in these cells and in Teff cells by flow cytometry. To determine the role of CD38:CD31 interaction and signaling in Gzm B degranulation, Tfrat cells were cultured with rCD31 (1 or 5 μg) with or without PI3K or ERK1/2 inhibitors (100 nM). After 24 h, degranulation of Gzm B in T^frat cells was measured by CD1071 staining and levels of various signaling molecules by flow cytometry.

[2] = system: target pMel-1 CD8 T cells; assay: Co-culture (in vitro cell killing) of PD1+CD38hi or Teff CD8 T cells with target pMel-1 CD8 T cells; annexin V, caspase3/7, live/dead staining; assay type: cell-based; conditions: co-incubation of T^frat and target cells with blocking antibody or inhibitor
From the text: For the flow cytometry analysis of lymphocytes of mouse and human origin, 1-2×10^6 cells per sample were stained with the LIVE/DEAD fixable near-IR dead cell stain kit (Invitrogen; catalog no. L10119) followed by fixation and permeabilization. All surface and intracellular markers were stained at the same time in fix and per buffer as per manufacturer's recommendations. For IFN-7 and Gzm B staining, the BD Biosciences Cytofix/Cytoperm (catalog no. 51-2090KZ) and BD Biosciences Perm/Wash (catalog no. 51-2091KZ) buffer sets were used according to the manufacturer's instructions. In a few experiments, variously treated cells were processed for annexin V staining to check the extent of apoptosis. For this, collected cells were stained for annexin V in annexin binding buffer (ABB) (BD Biosciences) for 30 minutes at 4° C. […]
PD1^+CD38^hi and Teff CD8 T cells were co-cultured overnight with FACS-sorted Thy1.1 target pMel-1 CD8^+ T cells (killer to target cell ratio 1:1) that were activated with gp100 peptide (1 μM per 10^6 cells per mL). […] In addition to the annexin V staining, Gzm B levels in the pMel-1 target CD8 or CD4 T cells and […] levels in the Tfrat cells after their co-culture in the presence or absence of anti-CD38/CD31 were measured by flow cytometry. […] Viability of target cells was assessed by FACS analysis using fixable Live/Dead stain.

T^frat cells [3] = assay: Degranulation (CD107a) in T^frat cells cultured with rCD31 with or without PI3K or ERK1/2 inhibitors; assay type: cell-based, mouse; conditions: rCD31 with inhibitor (100 nM), 24 h
[4] = system: Zap70, PI3K, RAC, and ERK in T^frat cells; assay: Signaling molecules in T^frat cells incubated with rCD31 (Western blotting); assay type: cell-based, mouse; conditions: incubation with rCD31 (1 or 5 μg)
Experimental: as §1, with “After 24 h, degranulation of Gzm B in T^frat cells was measured by CD1071 staining and levels of various signaling molecules by flow cytometry.” left out

Cl.O=C(Nc1ccccc1-c1cn2c(CN3CCNCC3)csc2n1)c1cnc2ccccc2n1 [SRT1720 HCl]
expression of Gzm B in T^frat (T^frat cells [1]): decrease in the expression of Gzm B

NC(=O)c1ccc[n+]([C@@H]2O[C@H](COP(=O)([O-])OP(=O)(O)OC[C@H]3O[C@@H](n4cnc5c(N)ncnc54)[C@H](O)[C@@H]3O)[C@@H](O)[C@H]2O)c1 [NAD]
expression of Gzm B in T^frat (T^frat cells [1]): decrease in the expression of Gzm B

C[C@H](NC(=O)OCc1ccccc1)C(=O)N[C@@H](C)C(=O)N[C@@H](CC(=O)O)C(=O)CCl [Z-AAD-CMK] (Cbz-Ala-Ala-Asp-CH2Cl)
T^frat-mediated apoptosis in target pMel-1 CD8 T cells in presence of the agent (annexin V) [2]: fully abrogated

O=C(Nc1ccc2[nH]nc(-c3ccncc3)c2c1)[C@@H]1CCN(CC(=O)N2CCN(c3ccc(-c4ncccn4)cc3)CC2)C1 [ERK inhibitor, SCH772984]
degranulation of Gzm B resulting from CD38:CD31 engagement, measured by CD107a level (T^frat cells [3]): inhibited

B1: rCD31: recombinant CD31 protein (3628-PC-050, R&D) (protein)
chain: EENSFTINSIHMESLPSWEVMNGQQLTLECLVDISTTSKSRSQHRVLFYKDDAMVYNVTSREHTESYVIPQARVFHSGKYKCTVMLNNKEKTTIEYEVKVHGVSKPKVTLDKKEVTEGGVVTVNCSLQEEKPPIFFKIEKLEVGTKFVKRRIDKTSNENFVLMEFPIEAQDHVLVFRCQAGILSGFKLQESEPIRSEYVTVQESFSTPKFEIKPPGMIIEGDQLHIRCIVQVTHLVQEFTEIIIQKDKAIVATSKQSSEAVYSVMAMVEYSGHYTCKVESNRISKASSIMVNITELFPKPKLEFSSSRLDQGELLDLSCSVSGTPVANFTIQKEETVLSQYQNFSKIAEESDSGEYSCTAGIGKVVKRSGLVPIQVCEMLSKPSIFHDAKSEIIKGHAIGISCQSENGTAPITYHLMKAKSDFQTLEVTSNDPATFTDKPTRDMEYQCRADNCHSHPAVFSEILRVRVIAPVDEVVISILSSNEVQSGSEMVLRCSVKEGTSPITFQFYKEKEDRPFHQAVVNDTQAFWHNKQASKKQEGQYYCTASNRASSMRTSPRSSTLAVRVFLAPWKK
expression of phosphorylated Zap70, PI3K, RAC, and ERK in T^frat cells [4]: increase in the expression of phosphorylated Zap70, PI3K, RAC, and ERK
